Structures can show the parent of a compound that is named as a salt. Where two headings read alike, the source gives them in different places.
Columns and labels:
CDK2/Cyclin A = CDK2/Cyclin A (Homo sapiens, UniProt P24941); assay: Inhibition of CDK2/Cyclin A Retinoblastoma Kinase Activity; format: biochemical; details: for Ki: apparent Ki, CDK2/proteolyzed cyclin A, Rb fragment substrate, 25 μM ATP
Summary of the method: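 Radiometric filter-binding readout of phosphate transfer to an Rb substrate fragment by purified CDK2/truncated cyclin A at 10 or 19 nM. Run at pH 7.4 with 25 μM ATP, 30 °C, 60–75 min, linear rates; background without enzyme subtracted, Ki from competitive-inhibition models.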

HCT-116 cell line = assay: Inhibition of cell growth, tetrazolium salt (MTT) assay; format: cell-based; details: for HCT-116 % Inhibition at 0.25 μM: 0.25 μM compound; for IC50: Homo sapiens, HCT-116, 120 h, MTT, three to five days, read-out: HCT-116 IC50
Summary of the method: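 McCoy's 5A cultures; 4 h pre-incubation; compound dilutions in 0.5% v/v DMSO; 3–5 d, 37° C, 5% CO2; MTT 0.2 mg/mL final, 4 h; formazan dissolved in DMSO, A540; vs 0.5% DMSO vehicle.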

[1] = target: human CDK4 and genetically truncated (1-264) cyclin D3 (Homo sapiens, UniProt P11802); assay: Inhibition of CDK4/Cyclin D Retinoblastoma Kinase Activity; format: biochemical; details: for Ki: apparent Ki, CDK4/truncated cyclin D3, Rb fragment substrate, 25 μM ATP
human CDK4 and genetically truncated (1-264) cyclin D3, sequence (P11802 whole entry, the tested form may be a part): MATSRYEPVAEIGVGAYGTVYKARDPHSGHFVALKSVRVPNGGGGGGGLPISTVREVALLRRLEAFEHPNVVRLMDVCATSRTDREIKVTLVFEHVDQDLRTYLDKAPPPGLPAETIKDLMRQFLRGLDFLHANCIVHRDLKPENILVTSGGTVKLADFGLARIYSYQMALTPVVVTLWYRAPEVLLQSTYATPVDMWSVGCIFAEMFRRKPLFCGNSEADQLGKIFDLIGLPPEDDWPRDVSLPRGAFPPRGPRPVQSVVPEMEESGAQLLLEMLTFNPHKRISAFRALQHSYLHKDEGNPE
human CDK4 and genetically truncated (1-264) cyclin D3, sequence (P30281 1-264 partner): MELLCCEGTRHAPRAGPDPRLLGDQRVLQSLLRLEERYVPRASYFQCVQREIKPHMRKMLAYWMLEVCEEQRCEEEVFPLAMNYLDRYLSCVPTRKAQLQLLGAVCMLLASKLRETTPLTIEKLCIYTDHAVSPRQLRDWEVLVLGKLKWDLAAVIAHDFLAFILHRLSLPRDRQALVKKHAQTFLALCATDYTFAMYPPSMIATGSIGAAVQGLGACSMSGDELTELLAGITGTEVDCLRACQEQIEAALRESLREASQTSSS
Description: Cyclin-dependent kinase activity was measured by quantifying the enzyme-catalyzed, time-dependent incorporation of radioactive phosphate from [^32P]ATP or [^33P]ATP into a protein substrate. Unless noted otherwise, assays were performed in 96-well plates in a total volume of 50 μL, in the presence of 10 mM HEPES (N-[2-hydroxyethyl]piperazine-N′-[2-ethanesulfonic acid]) (pH 7.4), 10 mM MgCl2, 25 μM adenosine triphosphate (ATP), 1 mg/mL ovalbumin, 5 μg/mL leupeptin, 1 mM dithiothreitol, 10 mM β-glycerophosphate, 0.1 mM sodium vanadate, 1 mM sodium fluoride, 2.5 mM ethylene glycol-bis(β-aminoethyl ether)-N,N,N′N′-tetraacetic acid (EGTA), 2% (v/v) dimethylsulfoxide, and 0.03-0.4 μCi [^32/33P]ATP per reaction. Reactions were initiated with enzyme, incubated at 30° C., and terminated after 20 minutes by the addition of ethylenediaminetetraacetic acid (EDTA) to 250 mM. The phosphorylated substrate was then captured on a nitrocellulose or phosphocellulose membrane using a 96-well filtration manifold, and unincorporated radioactivity was removed by repeated washing with 0.85% phosphoric acid. Radioactivity was quantified by exposing the dried membranes to a phosphorimager.
Inhibition was measured relative to control wells that contained all reaction components including 2% (v/v) DMSO but no compound, after subtraction of background radioactivity measured in the absence of enzyme. Apparent Ki values of discrete compounds were measured by assaying enzyme activity in the presence of different inhibitor compound concentrations and subtracting the background radioactivity measured in the absence of enzyme. The kinetic parameters (kcat, Km for ATP) were measured for each enzyme under the usual assay conditions by determining the dependence of initial rates on ATP concentration. Inhibition data were fit to an equation for competitive inhibition using Kaleidagraph (Synergy Software), or were fit to an equation for competitive tight-binding inhibition using the software KineTic (BioKin, Ltd.).
Inhibition of CDK4/Cyclin D Retinoblastoma Kinase Activity:
A complex of human CDK4 and genetically truncated (1-264) cyclin D3 was purified using traditional biochemical chromatographic techniques from insect cells that had been co-infected with the corresponding baculovirus expression vectors (see e.g., Meijer and Kim, “Chemical Inhibitors of Cyclin-Dependent Kinases,” Methods in Enzymol,. vol. 283 (1997), pp. 113-128.). The enzyme complex (5 nM) was assayed with 0.3-0.5 μg of purified recombinant retinoblastoma protein fragment (Rb) as a substrate. The engineered Rb fragment (residues 386-928 of the native retinoblastoma protein; 62.3 kDa) contains the majority of the phosphorylation sites found in the native 106-kDa protein, as well as a tag of six histidine residues for ease of purification. Phosphorylated Rb substrate was captured by microfiltration on a nitrocellulose membrane and quantified using a phosphorimager as described above. For measurement of tight-binding inhibitors, the assay duration was extended to 60 minutes, during which the time-dependence of product formation was linear and initial rate conditions were met.

With `CC(=O)Nc1ccc(S(=O)(=O)N2CCC(Nc3nc(N)c(C(=O)c4c(F)cccc4F)s3)CC2)cc1` [Example P17] the “CDK2 % Inhibition at 0.03 μM” value (CDK2/Cyclin A; 0.03 μM compound, Table 3) was 77%, the “HCT-116 % Inhibition at 0.1 μM” value (HCT-116 cell line; 0.1 μM compound, HCT-116, Table 3) was 14% and the “HCT-116 % Inhibition at 0.25 μM” value (HCT-116 cell line; HCT-116, Table 3) was 36%. For the same compound, the “CDK4 % Inhibition at 0.03 μM” value ([1]; 0.03 μM compound, Table 3) was 78%.
Compound `Nc1nc(NC2CCN(S(=O)(=O)c3ccc(NCCO)nc3)CC2)sc1C(=O)c1c(F)cccc1F` [Example G3, 1-(4-Amino-2{1-[6-(2-hydroxy-ethylamino)-pyridine-3-sulfonyl]-piperidin-4-ylamino}-thiazol-5-yl)-1-(2,6-difluoro-phenyl)-methanone] has a Ki (CDK2/Cyclin A) of less than 1 nM, an IC50 (HCT-116 cell line; first HCT-116 column (c4)) of 1700 nM and an IC50 (HCT-116 cell line; second HCT-116 column (c5)) greater than 5000 nM. It also gave a Ki [1] of 1.2 nM.
`Nc1nc(NC2CCN(S(=O)(=O)c3ccc(CCN4CCOCC4)nc3)CC2)sc1C(=O)c1c(F)cccc1F` [Example N3, (4-Amino-2-{1-[6-(2-morpholin-4-yl-ethyl)-pyridine-3-sulfonyl]-piperidin-4-ylamino}-thiazol-5-yl)-(2,6-difluoro-phenyl)-methanone Hydrochloride Salt.] gave a Ki (CDK2/Cyclin A) of 1.1 nM, an IC50 (HCT-116 cell line; first HCT-116 column (c4)) of 170 nM and an IC50 (HCT-116 cell line; second HCT-116 column (c5)) greater than 500 nM. The Ki [1] was 0.76 nM.
With `CCOC(=O)CCCC(=O)N1CCC(Nc2nc(N)c(C(=O)c3c(F)cccc3F)s2)CC1` [Example R3] the “CDK2 % Inhibition at 0.03 μM” value (CDK2/Cyclin A; at 0.03 μM) was −6%, the “HCT-116 % Inhibition at 0.1 μM” value (HCT-116 cell line; HCT-116 cells, at 0.1 μM) was 8% and the “HCT-116 5 Inhibition at 0.25 μM” value (HCT-116 cell line; HCT-116 cells) was 37. For the same compound, the “CDK4 % Inhibition at 0.03 μM” value ([1]; at 0.03 μM) was 42%.
For `Nc1nc(NC2CCN(C(=O)[C@@H]3C[C@H]3c3ccccc3)CC2)sc1C(=O)c1c(F)cccc1F` (relative stereo) [Example R92], the “CDK2 % Inhibition at 0.03 μM” value (CDK2/Cyclin A; at 0.03 μM) was −9%, the “HCT-116 % Inhibition at 0.1 μM” value (HCT-116 cell line; HCT-116 cells, at 0.1 μM) was 0% and the “HCT-116 5 Inhibition at 0.25 μM” value (HCT-116 cell line; HCT-116 cells) was 40. The “CDK4 % Inhibition at 0.03 μM” value ([1]; at 0.03 μM) was −2%.
For `COc1ccc(C)cc1NC(=O)N1CCC(Nc2nc(N)c(C(=O)c3c(F)cccc3F)s2)CC1` [Example O50], the “CDK2 % Inhibition At 0.03 μM” value (CDK2/Cyclin A; 0.03 μM compound, Table 2) was 37%, the “HCT-116 % Inhibition at 0.25 μM” value (HCT-116 cell line; HCT-116, Table 2) was 62% and the “CDK4 % Inhibition at 0.03 μM” value ([1]; 0.03 μM compound, Table 2) was 13%.
In the case of `Nc1nc(NC2CCN(S(=O)(=O)c3ccc(C(=O)O)cc3)CC2)sc1C(=O)c1c(F)cccc1F` [Example F14, 4-{4-[4-Amino-5-(2,6-difluoro-benzoyl)-thiazol-2-ylamino]-piperidine-1-sulfonyl}-benzoic Acid], the Ki (CDK2/Cyclin A) is reported as 2 nM, the IC50 (HCT-116 cell line; first HCT-116 column (c4)) is reported as less than 5000 nM and the IC50 (HCT-116 cell line; second HCT-116 column (c5)) is reported as less than 5000 nM. The Ki [1] was 14 nM.
With `Nc1nc(NC2CCN(S(=O)(=O)c3ccc([N+](=O)[O-])cn3)CC2)sc1C(=O)c1c(F)cccc1F` [Example F29, 1-{4-Amino-2-[1-(5-nitro-pyridine-2-sulfonyl)-piperidin-4-ylamino]-thiazol-5-yl}-1-(2,6-difluoro-phenyl)-methanone] the Ki (CDK2/Cyclin A) was 1000 nM and the Ki [1] was 400 nM.
`C[C@@H](NC(=O)N1CCC(Nc2nc(N)c(C(=O)c3c(F)cccc3F)s2)CC1)c1ccccc1` [Example B3, 4-[4-Amino-5-(2,6-difluoro-benzoyl)-thiazol-2-ylamino]-piperidine-1-carboxylic Acid (1R-Phenyl-ethyl)-amide] was tested, and the Ki (CDK2/Cyclin A) was 190 nM and the Ki [1] was 420 nM.
`COc1ccc(OC)c(NC(=O)N2CCC(Nc3nc(N)c(C(=O)c4c(F)cccc4F)s3)CC2)c1` [Example B4, 4-[4-Amino-5-(2,6-difluoro-benzoyl)-thiazol-2-ylamino]-piperidine-1-carboxylic Acid (2,5-Dimethoxy-phenyl)-amide] was tested, and the Ki (CDK2/Cyclin A) was 66 nM and the Ki [1] was 62 nM.
Work on `Cc1ccc(C(=O)/C=C/C(=O)N2CCC(Nc3nc(N)c(C(=O)c4c(F)cccc4F)s3)CC2)cc1` [Example D9, 1-{4-[4-Amino-5-(2,6-difluoro-benzoyl)-thiazol-2-ylamino]-piperidin-1-yl}-4-p-tolyl-but-2(E)-ene-1,4-dione] yielded a Ki (CDK2/Cyclin A) of 510 nM and a Ki [1] of 150 nM.
`Nc1nc(NC2CCNCC2)sc1C(=O)c1c(F)cccc1F` [Example A6, [4-Amino-2-(piperidin-4-ylamino)-thiazol-5-yl]-(2,6-difluoro-phenyl)-methanone] showed a Ki (CDK2/Cyclin A) of 1000 nM and a Ki [1] of 830 nM.
